Our source for the Kd and inhibition values is PMC4156518 (Cell metabolism, 2014).

The target in assay [1] is T1, UCP2 (murine, residues 14-309) (Mus musculus, UniProt P70406).
T1 sequence (P70406 14-309): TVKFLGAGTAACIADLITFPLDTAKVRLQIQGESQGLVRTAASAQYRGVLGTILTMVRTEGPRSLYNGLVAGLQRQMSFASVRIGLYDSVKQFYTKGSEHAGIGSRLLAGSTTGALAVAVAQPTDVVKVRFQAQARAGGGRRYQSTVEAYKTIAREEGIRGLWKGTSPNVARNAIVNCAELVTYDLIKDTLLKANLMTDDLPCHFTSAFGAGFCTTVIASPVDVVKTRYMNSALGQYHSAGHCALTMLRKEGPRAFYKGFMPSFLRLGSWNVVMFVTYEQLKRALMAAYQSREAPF
As to the kind of experiment: NMR titration, chemical shift perturbation. It is filed as binding.

Assay [2] concerns the target T1, UCP2 (murine, residues 14-309). As to the kind of experiment: proteoliposome ASO− flipping assay. It is filed as biochemical. The conditions noted are these: read-out: % inhibition at 100 μM.

For the compound `CCCCCCCCCCCCCCCC(=O)O` [C16-FA], the Kd in assay [1] turned out to be 600 ± 200 µM.

On to `Nc1nc2c(ncn2[C@@H]2O[C@H](COP(=O)(O)OP(=O)(O)O)[C@@H](O)[C@H]2O)c(=O)[nH]1` [GDP], for which the inhibition at 100 µM in assay [2] was approximately 95%.
